Results: paper PMC3004258, “Structure of the inhibitor complex of old yellow enzyme from Trypanosoma cruzi” (Journal of Synchrotron Radiation, 2010)

Target: T1, TcOYE (old yellow enzyme from Trypanosoma cruzi; PGF2alpha synthase) (Trypanosoma cruzi, UniProt Q8I6L9)
T1 construct: gene TcPGFS; recombinant, overexpressed in E. coli and purified; 2 molecules per asymmetric unit; residues up to at least 379
T1 sequence (Q8I6L9 1-379): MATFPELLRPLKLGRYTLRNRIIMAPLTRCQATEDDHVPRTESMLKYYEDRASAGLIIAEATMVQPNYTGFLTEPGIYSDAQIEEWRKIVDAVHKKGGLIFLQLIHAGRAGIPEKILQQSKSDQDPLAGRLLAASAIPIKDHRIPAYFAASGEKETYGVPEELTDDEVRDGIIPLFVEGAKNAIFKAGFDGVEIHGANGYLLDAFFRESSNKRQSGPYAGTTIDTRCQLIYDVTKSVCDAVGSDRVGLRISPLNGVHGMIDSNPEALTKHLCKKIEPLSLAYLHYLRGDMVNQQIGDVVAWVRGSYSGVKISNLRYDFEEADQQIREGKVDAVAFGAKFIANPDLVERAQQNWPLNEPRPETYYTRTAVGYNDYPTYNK
Experiment: X-ray crystallography, […] Å
Assay type: binding
Details: TcOYE/FMN binary complex; prosthetic group at C-terminal ends of barrel strands

With Cc1cc2nc3c(=O)[nH]c(=O)nc-3n(C[C@H](O)[C@H](O)[C@H](O)COP(=O)(O)O)c2cc1C [FMN] as the molecule, how does the “X-ray crystallography, 1.7 Å” value read?
Its value is “The structure of TcOYE/FMN binary complex was determined by molecular replacement methods”.
